The results in this text go back to patent publication US20250206724A1, “SUBSTITUTED 3-AMINO INDAZOLE DERIVATIVES AS KINASE INHIBITORS” (NERVIANO MEDICAL SCIENCES S.R.L., priority 2022, published 2025).

Counter-ions that a name gives are not always drawn.
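Also: compound preincubated 30 min with CDK11A-p58, then probe added and polarization (mP) read 15 min later, 0% displacement is probe plus enzyme, 100% is probe alone.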

For the test, the target named is T1, CDK11A (Homo sapiens, UniProt Q9UQ88).
T1 sequence (Q9UQ88 346-783): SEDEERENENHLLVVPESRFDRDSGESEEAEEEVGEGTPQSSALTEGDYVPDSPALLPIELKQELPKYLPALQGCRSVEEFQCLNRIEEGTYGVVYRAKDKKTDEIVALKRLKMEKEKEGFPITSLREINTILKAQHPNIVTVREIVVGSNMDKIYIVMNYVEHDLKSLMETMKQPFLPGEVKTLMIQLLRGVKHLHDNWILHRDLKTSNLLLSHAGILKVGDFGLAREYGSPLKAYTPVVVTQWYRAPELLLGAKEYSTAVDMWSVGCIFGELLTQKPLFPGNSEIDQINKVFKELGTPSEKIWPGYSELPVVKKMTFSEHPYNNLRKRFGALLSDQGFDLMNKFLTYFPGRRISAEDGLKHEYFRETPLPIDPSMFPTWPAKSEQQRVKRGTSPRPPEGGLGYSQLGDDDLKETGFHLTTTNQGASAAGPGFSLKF
As to conditions: displacement of SNS-032-Atto590 probe (0.002 μM) from CDK11A-p58 (0.032 uM), fluorescence polarization. On the technique in general: Polarisation of emitted light reports the rotation of a fluorescent probe.
Consider `O=C(C[C@@H]1CCCN1)Nc1n[nH]c2ccc(-c3c(Cl)cccc3Cl)cc12` [compound 162, N-[5-(2,6-Dichlorophenyl)-1H-indazol-3-yl]-2-[(2S)-pyrrolidin-2-yl]acetamide hydrochloride], for which the DC50 was determined as 792 nM.
The figure for `CC(C)(C)COC(=O)n1nc(NC(=O)[C@@H]2CCCNC2)c2cc(-c3cc(C#N)ccc3Cl)ccc21` [cpd 212, 2,2-Dimethylpropyl 5-(2-chloro-5-cyanophenyl)-3-{[(3R)-piperidin-3-ylcarbonyl]amino}-1H-indazole-1-carboxylate hydrochloride] is 821 nM; for `CC(C)C(OC(=O)N1CCC[C@@H](C(=O)Nc2n[nH]c3ccc(-c4cc(C#N)ccc4Cl)cc23)C1)OC(=O)C(C)(C)C` (stereo partly drawn) [compound 197, 1-[(2,2-Dimethylpropanoyl)oxy]-2-methylpropyl (3R)-3-{[5-(2-chloro-5-cyanophenyl)-1H-indazol-3-yl]carbamoyl}piperidine-1-carboxylate] it is 900 nM; for `O=C(Nc1n[nH]c2ccc(-c3c(F)cccc3Cl)cc12)[C@H]1CCCNC1` [compound 173, (3S)-N-[5-(2-Chloro-6-fluorophenyl)-1H-indazol-3-yl]piperidine-3-carboxamide hydrochloride] it is 391 nM.
The figure for `CN1CCC(C(=O)Nc2n[nH]c3ccc(-c4c(F)cc(F)cc4F)cc23)CC1` [compound 123, 1-Methyl-N-[5-(2,4,6-trifluorophenyl)-1H-indazol-3-yl]piperidine-4-carboxamide hydrochloride] is 665 nM; for `Cc1ccc(F)c(-c2ccc3[nH]nc(NC(=O)C4CCN(C)CC4)c3c2)c1Cl` [cpd 73, N-[5-(2-Chloro-6-fluoro-3-methylphenyl)-1H-indazol-3-yl]-1-methylpiperidine-4-carboxamide hydrochloride] it is 476 nM.
In the case of `COC(=O)c1cc(-c2ccc3[nH]nc(NC(=O)[C@@H]4CCCNC4)c3c2)c(F)cc1F` [cpd 50, Methyl 2,4-difluoro-5-(3-{[(3R)-piperidin-3-ylcarbonyl]amino}-1H-indazol-5-yl)benzoate hydrochloride] it was 164 nM; in that of `N#Cc1ccc(Cl)c(-c2ccc3[nH]nc(NC(=O)[C@H]4CNCCO4)c3c2)c1` [compound 182, (2R)-N-[5-(2-Chloro-5-cyanophenyl)-1H-indazol-3-yl]morpholine-2-carboxamide hydrochloride], 140 nM.
In turn, `CNC1CC(C(=O)Nc2n[nH]c3ccc(-c4cc(C#N)ccc4Cl)cc23)C1` (stereo not shown) [compound 146, N-[5-(2-Chloro-5-cyanophenyl)-1H-indazol-3-yl]-3-(methylamino)cyclobutanecarboxamide hydrochloride] showed a DC50 of 23 nM.
In the case of `N#Cc1ccc(Cl)c(-c2ccc3[nH]nc(NC(=O)[C@@H]4CCC5(CCCCC5)NC4)c3c2)c1` (single isomer, unassigned) [compound 207, (3-)-N-[5-(2-Chloro-5-cyanophenyl)-1H-indazol-3-yl]-1-azaspiro[5.5]undecane-3-carboxamide] it was 229 nM; in that of `NC(=O)c1ccc(Cl)c(-c2ccc3[nH]nc(NC(=O)C4CCCNC4)c3c2)c1` (stereo not shown) [cpd 9, N-[5-(5-Carbamoyl-2-chlorophenyl)-1H-indazol-3-yl]piperidine-3-carboxamide hydrochloride], 131 nM.
For `CN1CCC(C(=O)Nc2n[nH]c3ccc(-c4ccccc4F)cc23)CC1` [cpd 78, N-[5-(2-Fluorophenyl)-1H-indazol-3-yl]-1-methylpiperidine-4-carboxamide hydrochloride], the DC50 stood at 308 nM.
In the case of `NCCCN1CCC(C(=O)Nc2n[nH]c3ccc(-c4c(F)cccc4Cl)cc23)CC1` [cpd 66, 1-(3-Aminopropyl)-N-[5-(2-chloro-6-fluorophenyl)-1H-indazol-3-yl]piperidine-4-carboxamide dihydrochloride] it was 58 nM; in that of `O=C(Nc1n[nH]c2ccc(-c3ccc(Cl)cc3Cl)cc12)[C@@H]1CCCNC1` [cpd 14, (3R)-N-[5-(2,4-Dichlorophenyl)-1H-indazol-3-yl]piperidine-3-carboxamide hydrochloride], 87 nM; in that of `COc1ccc(Cl)c(-c2ccc3[nH]nc(NC(=O)C4CCCNC4)c3c2)c1` (stereo not shown) [cpd 17, N-[5-(2-Chloro-5-methoxyphenyl)-1H-indazol-3-yl]piperidine-3-carboxamide hydrochloride], 52 nM.
The figure for `CNC1CC(C(=O)Nc2n[nH]c3ccc(-c4ccc(O)cc4Cl)cc23)C1` (stereo not shown) [cpd 63, N-[5-(2-Chloro-4-hydroxyphenyl)-1H-indazol-3-yl]-3-(methylamino)cyclobutanecarboxamide hydrochloride] is 48 nM; for `O=C(Nc1n[nH]c2ccc(-c3c(Cl)cccc3Cl)cc12)C12CCN(CC1)CC2` [compound 160, N-[5-(2,6-Dichlorophenyl)-1H-indazol-3-yl]-1-azabicyclo[2.2.2]octane-4-carboxamide] it is 221 nM.
The figure for `N#Cc1ccc(C#N)c(-c2ccc3[nH]nc(NC(=O)[C@@H]4CCCNC4)c3c2)c1` [cpd 53, (3R)-N-[5-(2,5-Dicyanophenyl)-1H-indazol-3-yl]piperidine-3-carboxamide hydrochloride] is 30 nM.
Compound `COCC(C)N1CCC(C(=O)Nc2n[nH]c3ccc(-c4c(F)cccc4Cl)cc23)CC1` (stereo not shown) [cpd 67, N-[5-(2-Chloro-6-fluorophenyl)-1H-indazol-3-yl]-1-(1-methoxypropan-2-yl)piperidine-4-carboxamide hydrochloride] came in with a DC50 of 151 nM.
In the case of `O=C(Nc1n[nH]c2ccc(OCCF)cc12)[C@@H]1CCCNC1` [cpd 227, (3R)-N-[5-(2-Fluoroethoxy)-1H-indazol-3-yl]piperidine-3-carboxamide hydrochloride] it was 71 nM.
In the case of `O=C(Nc1n[nH]c2ccc(-c3cc(O)ccc3Cl)cc12)[C@@H]1CCCNC1` [cpd 41, (3R)-N-[5-(2-Chloro-5-hydroxyphenyl)-1H-indazol-3-yl]piperidine-3-carboxamide hydrochloride] it was 33 nM; in that of `Nc1ccc(-c2ccc3[nH]nc(NC(=O)[C@@H]4CCCNC4)c3c2)c(Cl)c1` [cpd 5, (3R)-N-[5-(4-Amino-2-chlorophenyl)-1H-indazol-3-yl]piperidine-3-carboxamide dihydrochloride], 18 nM; in that of `CN1CCC(C(=O)Nc2n[nH]c3ccc(-c4cc(F)c(F)cc4F)cc23)CC1` [compound 126, 1-Methyl-N-[5-(2,4,5-trifluorophenyl)-1H-indazol-3-yl]piperidine-4-carboxamide hydrochloride], 913 nM.
The figure for `CN1CCC(C(=O)Nc2n[nH]c3ccc(-c4cc([N+](=O)[O-])ccc4F)cc23)CC1` [cpd 115, N-[5-(2-Fluoro-5-nitrophenyl)-1H-indazol-3-yl]-1-methylpiperidine-4-carboxamide hydrochloride] is 165 nM.
In turn, `COC(=O)c1ccc(Cl)c(-c2ccc3[nH]nc(NC(=O)[C@@H]4CCCNC4)c3c2)c1` [cpd 29, Methyl 4-chloro-3-(3-{[(3R)-piperidin-3-ylcarbonyl]amino}-1H-indazol-5-yl)benzoate hydrochloride] came in with a DC50 of 24 nM.
The figure for `C[C@@H]1CC[C@@H](C(=O)Nc2n[nH]c3ccc(-c4c(Cl)cccc4Cl)cc23)CN1` [compound 178, (3R,6R)-N-[5-(2,6-Dichlorophenyl)-1H-indazol-3-yl]-6-methylpiperidine-3-carboxamide trifluoroacetate] is 28 nM; for `O=C(Nc1n[nH]c2ccc(-c3c(Cl)cccc3Cl)cc12)[C@H]1CCCNC1` [compound 170, (3S)-N-[5-(2,6-Dichlorophenyl)-1H-indazol-3-yl]piperidine-3-carboxamide hydrochloride] it is 177 nM; for `CCCCN1CCC(C(=O)Nc2n[nH]c3ccc(-c4c(Cl)cccc4Cl)cc23)CC1` [cpd 69, 1-Butyl-N-[5-(2,6-dichlorophenyl)-1H-indazol-3-yl]piperidine-4-carboxamide] it is 122 nM.
In the case of `O=C(Nc1n[nH]c2ccc(-c3ccc(F)cc3F)cc12)[C@@H]1CCCNC1` [cpd 30, (3R)-N-[5-(2,4-Difluorophenyl)-1H-indazol-3-yl]piperidine-3-carboxamide hydrochloride] it was 38 nM; in that of `O=C(CC1CCNCC1)Nc1n[nH]c2ccc(-c3c(Cl)cccc3Cl)cc12` [compound 163, N-[5-(2,6-Dichlorophenyl)-1H-indazol-3-yl]-2-(piperidin-4-yl)acetamide hydrochloride], 576 nM.
In the case of `CCCCOc1ccc2[nH]nc(NC(=O)[C@@H]3CCCNC3)c2c1` [cpd 231, (3R)-N-(5-Butoxy-1H-indazol-3-yl)piperidine-3-carboxamide hydrochloride] it was 71 nM; in that of `CCCN1CCC(C(=O)Nc2n[nH]c3ccc(-c4cc(C#N)ccc4Cl)cc23)CC1` [compound 141, N-[5-(2-Chloro-5-cyanophenyl)-1H-indazol-3-yl]-1-propylpiperidine-4-carboxamide hydrochloride], 79 nM; in that of `CN1CCC(C(=O)Nc2n[nH]c3ccc(-c4ccc(C=O)cc4F)cc23)CC1` [cpd 118, N-[5-(2-Fluoro-4-formylphenyl)-1H-indazol-3-yl]-1-methylpiperidine-4-carboxamide hydrochloride], 467 nM.
In the case of `O=C(Nc1n[nH]c2ccc(-c3cc(Cl)ccc3Cl)cc12)[C@@H]1CCCNC1` [cpd 13, (3R)-N-[5-(2,5-Dichlorophenyl)-1H-indazol-3-yl]piperidine-3-carboxamide hydrochloride], the DC50 worked out at 36 nM.
